# Key:
# [1] = test system: A549 lung adenocarcinoma cells; assay: Amino acid uptake and inhibition in A549 cells; format: cell-based, human; settings: A549, 30 minutes incubation
# [2] = test system: DU145 androgen-independent prostate carcinoma cells; assay: Amino acid uptake and inhibition in DU145 cells; format: cell-based, human; settings: DU145, 30 minutes incubation
# U87 glioblastoma cells = assay: Amino acid uptake and inhibition in U87 cells; format: cell-based, human; settings: for Cell uptake: U87, 30 minutes incubation
# [3] = test system: MDA MB468 estrogen-independent breast carcinoma cells; assay: Amino acid uptake and inhibition in MDA MB468 cells; format: cell-based, human; settings: MDA MB468, 30 minutes incubation
# U87 tumor xenograft = assay: Biodistribution in U87 tumor-bearing SCID mice; format: in vivo; settings: listed as (R)-[^18F] FAMP 1
# SKOV3 tumor xenograft = assay: Biodistribution in SKOV3 tumor-bearing SCID mice; format: in vivo; settings: listed as (R)-[^18F] FAMP 1
# [4] = test system: human A549, DU145, U87, MDA MB468 and SKOV3 tumor cells; assay: Amino acid uptake and inhibition, summary over the five tumor cell lines; format: cell-based
structure (smiles),measurement,setting,value
CC(N)(C[18F])C(=O)O [(R)-[^18F]1] [2-amino-3-[^18F]fluoro-2-methylpropanoic acid],Cell uptake,[1]; 10 mM BCH,2.3±0.3 % ID/5×10^5 cells
same,Cell uptake,[1]; 10 mM MeAIB,4.6±0.5 % ID/5×10^5 cells
same,Cell uptake,[1]; Control (no inhibitor),5.1±0.3 % ID/5×10^5 cells
same,Cell uptake,[2]; 10 mM BCH,3.3±0.2 % ID/5×10^5 cells
same,Cell uptake,[2]; 10 mM MeAIB,3.6±0.2 % ID/5×10^5 cells
same,Cell uptake,[2]; Control (no inhibitor),5.1±0.1 % ID/5×10^5 cells
same,Cell uptake,U87 glioblastoma cells; 10 mM BCH,4.8±0.3 % ID/5×10^5 cells
same,Cell uptake,U87 glioblastoma cells; 10 mM MeAIB,2.0±0.3 % ID/5×10^5 cells
same,Cell uptake,U87 glioblastoma cells; Control (no inhibitor),6.0±0.3 % ID/5×10^5 cells
same,inhibition of uptake by BCH,"U87 glioblastoma cells; U87 cells, 10 mM BCH, relative to control",20%
same,inhibition of uptake by MeAIB,"U87 glioblastoma cells; U87 cells, 10 mM MeAIB, relative to control",67%
same,Cell uptake,[3]; 10 mM BCH,3.0±0.4 % ID/5×10^5 cells
same,Cell uptake,[3]; 10 mM MeAIB,4.4±0.2 % ID/5×10^5 cells
same,Cell uptake,[3]; Control (no inhibitor),5.7±0.3 % ID/5×10^5 cells
same,uptake in blood,U87 tumor xenograft; 15 min post injection,3.2±0.2 %ID/g
same,uptake in bone,U87 tumor xenograft; 15 min post injection,3.2±1.5 %ID/g
same,uptake in brain,U87 tumor xenograft; 15 min post injection,0.8±0.2 %ID/g
same,uptake in heart,U87 tumor xenograft; 15 min post injection,4.7±1.2 %ID/g
same,uptake in kidney,U87 tumor xenograft; 15 min post injection,23±2.5 %ID/g
same,uptake in liver,U87 tumor xenograft; 15 min post injection,7.6±2.9 %ID/g
same,uptake in lung,U87 tumor xenograft; 15 min post injection,4.7±0.6 %ID/g
same,uptake in muscle,U87 tumor xenograft; 15 min post injection,2.2±0.5 %ID/g
same,uptake in pancreas,U87 tumor xenograft; 15 min post injection,62±6.3 %ID/g
same,uptake in spleen,U87 tumor xenograft; 15 min post injection,19±6.4 %ID/g
same,uptake in tumor,U87 tumor xenograft; 15 min post injection,6.5±1.2 %ID/g
same,uptake in blood,U87 tumor xenograft; 30 min post injection,2.6±0.7 %ID/g
same,uptake in bone,U87 tumor xenograft; 30 min post injection,3.5±0.5 %ID/g
same,uptake in brain,U87 tumor xenograft; 30 min post injection,0.9±0.2 %ID/g
same,uptake in heart,U87 tumor xenograft; 30 min post injection,4.3±0.6 %ID/g
same,uptake in kidney,U87 tumor xenograft; 30 min post injection,15±2.1 %ID/g
same,uptake in liver,U87 tumor xenograft; 30 min post injection,7.7±1.5 %ID/g
same,uptake in lung,U87 tumor xenograft; 30 min post injection,3.4±0.5 %ID/g
same,uptake in muscle,U87 tumor xenograft; 30 min post injection,2.2±0.5 %ID/g
same,uptake in pancreas,U87 tumor xenograft; 30 min post injection,43±8.2 %ID/g
same,uptake in spleen,U87 tumor xenograft; 30 min post injection,13±2.4 %ID/g
same,uptake in tumor,U87 tumor xenograft; 30 min post injection,6.0±0.9 %ID/g
same,uptake in blood,U87 tumor xenograft; 60 min post injection,1.6±0.4 %ID/g
same,uptake in bone,U87 tumor xenograft; 60 min post injection,3.2±0.8 %ID/g
same,uptake in brain,U87 tumor xenograft; 60 min post injection,1.2±0.2 %ID/g
same,uptake in heart,U87 tumor xenograft; 60 min post injection,4.2±0.9 %ID/g
same,uptake in kidney,U87 tumor xenograft; 60 min post injection,8.0±1.8 %ID/g
same,uptake in liver,U87 tumor xenograft; 60 min post injection,6.9±1.4 %ID/g
same,uptake in lung,U87 tumor xenograft; 60 min post injection,2.4±0.6 %ID/g
same,uptake in muscle,U87 tumor xenograft; 60 min post injection,2.9±0.6 %ID/g
same,uptake in pancreas,U87 tumor xenograft; 60 min post injection,28±5.0 %ID/g
same,uptake in spleen,U87 tumor xenograft; 60 min post injection,7.0±1.4 %ID/g
same,uptake in tumor,U87 tumor xenograft; 60 min post injection,4.2±0.3 %ID/g
same,uptake in blood,U87 tumor xenograft; 120 min post injection,0.8±0.1 %ID/g
same,uptake in bone,U87 tumor xenograft; 120 min post injection,1.5±0.2 %ID/g
same,uptake in brain,U87 tumor xenograft; 120 min post injection,1.2±0.1 %ID/g
same,uptake in heart,U87 tumor xenograft; 120 min post injection,3.6±0.4 %ID/g
same,uptake in kidney,U87 tumor xenograft; 120 min post injection,4.2±0.4 %ID/g
same,uptake in liver,U87 tumor xenograft; 120 min post injection,8.0±0.7 %ID/g
same,uptake in lung,U87 tumor xenograft; 120 min post injection,1.3±0.2 %ID/g
same,uptake in muscle,U87 tumor xenograft; 120 min post injection,1.6±0.2 %ID/g
same,uptake in pancreas,U87 tumor xenograft; 120 min post injection,15.1±3.2 %ID/g
same,uptake in spleen,U87 tumor xenograft; 120 min post injection,3.5±0.4 %ID/g
same,uptake in tumor,U87 tumor xenograft; 120 min post injection,3.1±0.8 %ID/g
same,uptake in bone,SKOV3 tumor xenograft; 15 min post injection,2.6±1.0 %ID/g
same,uptake in brain,SKOV3 tumor xenograft; 15 min post injection,0.7±0.4 %ID/g
same,uptake in heart,SKOV3 tumor xenograft; 15 min post injection,4.0±2.1 %ID/g
same,uptake in kidney,SKOV3 tumor xenograft; 15 min post injection,17±4.5 %ID/g
same,uptake in liver,SKOV3 tumor xenograft; 15 min post injection,4.6±2.5 %ID/g
same,uptake in lung,SKOV3 tumor xenograft; 15 min post injection,3.9±1.3 %ID/g
same,uptake in muscle,SKOV3 tumor xenograft; 15 min post injection,2.3±1.1 %ID/g
same,uptake in pancreas,SKOV3 tumor xenograft; 15 min post injection,38±18 %ID/g
same,uptake in spleen,SKOV3 tumor xenograft; 15 min post injection,8.7±3.4 %ID/g
same,uptake in tumor,SKOV3 tumor xenograft; 15 min post injection,10±4.8 %ID/g
same,uptake in blood,SKOV3 tumor xenograft; 30 min post injection,2.7±0.3 %ID/g
same,uptake in bone,SKOV3 tumor xenograft; 30 min post injection,2.8±0.7 %ID/g
same,uptake in brain,SKOV3 tumor xenograft; 30 min post injection,1.0±0.04 %ID/g
same,uptake in heart,SKOV3 tumor xenograft; 30 min post injection,4.9±0.1 %ID/g
same,uptake in kidney,SKOV3 tumor xenograft; 30 min post injection,14±2.6 %ID/g
same,uptake in liver,SKOV3 tumor xenograft; 30 min post injection,5.0±0.7 %ID/g
same,uptake in lung,SKOV3 tumor xenograft; 30 min post injection,3.1±0.3 %ID/g
same,uptake in muscle,SKOV3 tumor xenograft; 30 min post injection,2.8±0.3 %ID/g
same,uptake in pancreas,SKOV3 tumor xenograft; 30 min post injection,41±7.4 %ID/g
same,uptake in spleen,SKOV3 tumor xenograft; 30 min post injection,13±3.6 %ID/g
same,uptake in tumor,SKOV3 tumor xenograft; 30 min post injection,14±1.1 %ID/g
same,uptake in blood,SKOV3 tumor xenograft; 60 min post injection,2.1±0.1 %ID/g
same,uptake in bone,SKOV3 tumor xenograft; 60 min post injection,2.3±0.3 %ID/g
same,uptake in brain,SKOV3 tumor xenograft; 60 min post injection,1.0±0.3 %ID/g
same,uptake in heart,SKOV3 tumor xenograft; 60 min post injection,4.9±1.1 %ID/g
same,uptake in kidney,SKOV3 tumor xenograft; 60 min post injection,10±0.8 %ID/g
same,uptake in liver,SKOV3 tumor xenograft; 60 min post injection,4.5±0.3 %ID/g
same,uptake in lung,SKOV3 tumor xenograft; 60 min post injection,2.5±0.3 %ID/g
same,uptake in muscle,SKOV3 tumor xenograft; 60 min post injection,2.6±0.6 %ID/g
same,uptake in pancreas,SKOV3 tumor xenograft; 60 min post injection,34±4.7 %ID/g
same,uptake in spleen,SKOV3 tumor xenograft; 60 min post injection,6.8±1.0 %ID/g
same,uptake in tumor,SKOV3 tumor xenograft; 60 min post injection,9.0±2.2 %ID/g
same,uptake in blood,SKOV3 tumor xenograft; 120 min post injection,1.5±0.2 %ID/g
same,uptake in bone,SKOV3 tumor xenograft; 120 min post injection,1.9±0.4 %ID/g
same,uptake in brain,SKOV3 tumor xenograft; 120 min post injection,1.2±0.2 %ID/g
same,uptake in heart,SKOV3 tumor xenograft; 120 min post injection,3.6±0.6 %ID/g
same,uptake in kidney,SKOV3 tumor xenograft; 120 min post injection,7.0±0.8 %ID/g
same,uptake in liver,SKOV3 tumor xenograft; 120 min post injection,2.7±0.5 %ID/g
same,uptake in lung,SKOV3 tumor xenograft; 120 min post injection,1.8±0.3 %ID/g
same,uptake in muscle,SKOV3 tumor xenograft; 120 min post injection,2.0±0.4 %ID/g
same,uptake in pancreas,SKOV3 tumor xenograft; 120 min post injection,19±2.4 %ID/g
same,uptake in spleen,SKOV3 tumor xenograft; 120 min post injection,4.5±1.1 %ID/g
same,uptake in tumor,SKOV3 tumor xenograft; 120 min post injection,6.2±0.5 %ID/g
same,inhibition of uptake by BCH,"[4]; 10 mM BCH, relative to control, most cell lines",36-68%
same,inhibition of uptake by MeAIB,"[4]; 10 mM MeAIB, relative to control, most cell lines",10-32%
same,uptake in tumor cells,"[4]; 30 minutes incubation, without inhibitors, range over the cell lines",5-9 %ID/5×10^5 cells
same,amino acid transport system mediating uptake / selectivity,[4]; AAT cell inhibition assays with MeAIB and BCH,"mixed AATs, likely but not limited to system A and system L"
